Data from PubChem BioAssay (NCI).
Where “and” joins values, the source holds several entries; their conditions need not be identical. Equal entries are not always repeated.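 Interpolation was linear, between the two tested concentrations surrounding the appropriate level; five concentrations were tested over 48 hours in 96-well plates. Here, GI50 denotes the concentration required for 50% inhibition of growth. TGI marks complete inhibition of growth.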

What follows are molecules tested on MDA-MB-468 breast (assay: growth of human tumour cells (NCI), 48 h).

Compound	GI50	TGI
Cn1cc(C2=C(c3cn(C)c4cc(C(N)=O)ccc34)C(=O)NC2=O)c2ccccc21	1180 nM	15900 nM
O=c1[nH]c(=O)n(C2CC(O)C(CO)O2)cc1CO (stereo not drawn)	> 100000 nM	> 100000 nM
COC12C=C/C(=C(/C(=O)OCc3ccncc3)C(=O)CCCCCCCCC3(OC)C=C/C(=C(/C(=O)OCc4ccncc4)C(=O)CCCCCCCC1)O3)O2	635 nM	2000 nM
COc1cccc2c1C(=O)c1c(O)c3c(c(O)c1C2=O)CC(O)(/C(C)=N/NC(=O)CCC(=O)N/N=C(\C)C1(O)Cc2c(O)c4c(c(O)c2C(OC2CC(N)C(O)C(C)O2)C1)C(=O)c1c(OC)cccc1C4=O)CC3OC1CC(N)C(O)C(C)O1 (stereo not drawn)	101 nM	340 nM
CC1(C)OCCn2c1nc1c(N3CCOCC3)nc(-c3cnc(N)nc3)nc12	339 nM	2600 nM
CCOC(=O)C(=Cc1cccc(Cl)c1)C(=O)OCC	1810 nM	3850 nM
N=c1ccn2c(n1)OC1C(O)C(CO)OC12 (stereo not drawn)	> 100000 nM	> 100000 nM
C=CC(=O)N1CCC(C2CCNc3c(C(N)=O)c(-c4ccc(Oc5ccccc5)cc4)nn32)CC1 (stereo not drawn)	752 nM	8520 nM
COc1ccncc1C#Cc1cncc(C(=O)Nc2ccc(CN3CCN(C)CC3)c(C(F)(F)F)c2)c1	24700 nM	> 100000 nM
COc1cc(CNCCCN2C(=O)c3ccc4c5c(ccc(c35)C2=O)C(=O)N(CCCNCc2cc(OC)c(OC)c(OC)c2)C4=O)cc(OC)c1OC	153 nM	406 nM
Cc1ccc(/C=C/c2c(C(=O)/C=C/c3ccc(C(F)(F)F)cc3)c(C)nc3ccccc23)cc1	1840 nM	3530 nM
N#C/C=C(\c1ccc([N+](=O)[O-])cc1)n1nnc2cc(Cl)c(Cl)cc21	1370 nM	3330 nM
CC(C)=CCc1cc(O)cc2c1OC(C=C(C)C)C1=C2C(=O)C2=C(NCCS2(=O)=O)C1=O (stereo not drawn)	2540 nM	7890 nM
O=C1c2c(c3c4cc(Br)ccc4[nH]c3c3ccc4ccccc4c23)C(=O)N1CCN1CCCCC1	1620 nM	3520 nM
Cn1cnc([N+](=O)[O-])c1S(=O)(=O)Oc1ccccc1	1950 nM	4680 nM
O=c1cc2oc3cc(O)c(O)cc3c(-c3ccccc3O)c-2cc1O	12600 nM	42600 nM
N#Cc1c(-c2ccc(F)cc2)c(-c2ccc(F)cc2)nn(CCO)c1=O		> 100000 nM
Nc1nccc2c1ccn2-c1ccc(NC(=O)c2ccc(N3CCOCC3)c(C(F)(F)F)c2)cc1	2160 nM	16500 nM
Cc1nc2cnc(N)c(C#Cc3cncc(C(=O)Nc4ccc(CN5CCN(C)CC5)c(C(F)(F)F)c4)c3)c2nc1C	2250 nM	15900 nM
COc1cc(C2c3cc4c(cc3C(O)C(CO)C2CO)OCO4)cc(OC)c1OC (stereo not drawn)	270 nM	
O=C(c1c(F)ccc(NS(=O)(=O)N2CC[C@@H](F)C2)c1F)c1c[nH]c2ncc(-c3cnc(C4CC4)nc3)cc12	3930 nM and 3670 nM	> 10000 nM and 27900 nM
O=C(c1ccc(F)c(F)c1Nc1ccc(I)cc1F)N1CC(O)([C@@H]2CCCCN2)C1	3750 nM and 1790 nM	16200 nM and > 8970 nM
COc1ccc2[nH]cc(-c3nc(-c4c[nH]c5ncccc45)cs3)c2c1	2690 nM	> 100000 nM
Nc1c(C(=O)Nc2cccc(Br)c2)sc2nc3c(cc12)C(=O)CCC3	259 nM	> 100000 nM
C[C@H]1Oc2cc(cnc2N)-c2c(nn(C)c2C#N)CN(C)C(=O)c2ccc(F)cc21	30800 nM	> 100000 nM
Cc1csc(Nc2nc(-c3cccc(Br)c3)nc(C(Cl)(Cl)Cl)n2)n1	354 nM	1550 nM
CS(=O)(=O)CCCn1c(=O)c(Oc2ccc(F)cc2F)cc2cnc(NC3CCOCC3)nc21	> 25000 nM	> 25000 nM
CCCCCCNC(=O)c1nc(-c2ccccc2)oc1Cc1ccc(OP(=O)(O)O)cc1	14300 nM	28200 nM
CC(=O)c1cc2c(o1)C(=O)c1ccccc1C2=O	912 nM and 1260 nM	2540 nM and 2800 nM
COc1cc(-c2nn(-c3cccc(NC(=O)Nc4ccc(Cl)c(Cl)c4)c3)cc2-c2ccncc2)ccc1Cl	567 nM	2270 nM
